In patent US8822467B2 (Ligand Pharmaceuticals Inc., priority 2009, dated 2014):

target: T1, human CRTH2 (Homo sapiens, UniProt Q9Y5Y4); assay: [35S]GTPγS binding assay (SPA) on membranes from CHO-K1 cells stably expressing human CRTH2, stimulated with 60 nM DHK-PGD2; assay type: biochemical; conditions: membranes of CHO-K1 cells expressing human CRTH2; 60 nM DHK-PGD2; Table 1; read-out: CRTH2 hGTPγS IC50
T1 construct: expressed in transfected cells
T1 sequence (Q9Y5Y4 1-395): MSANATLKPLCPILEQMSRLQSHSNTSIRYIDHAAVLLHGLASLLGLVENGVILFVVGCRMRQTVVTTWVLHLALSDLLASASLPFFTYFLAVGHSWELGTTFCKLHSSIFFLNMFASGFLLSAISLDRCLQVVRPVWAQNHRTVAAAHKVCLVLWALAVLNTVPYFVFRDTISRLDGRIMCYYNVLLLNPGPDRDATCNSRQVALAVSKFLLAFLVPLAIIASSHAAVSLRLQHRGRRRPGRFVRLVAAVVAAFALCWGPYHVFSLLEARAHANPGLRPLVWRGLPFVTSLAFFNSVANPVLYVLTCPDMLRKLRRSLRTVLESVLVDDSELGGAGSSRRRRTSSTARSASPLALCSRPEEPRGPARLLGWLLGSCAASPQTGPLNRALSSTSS
In short: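 Read-out is scintillation proximity: bound [35S]GTPγS (500 pM, with 10 μM GDP) was counted 4 h after centrifuging a 2 h ambient-temperature incubation. Reactions held 4 μg human CRTH2 CHO-K1 membrane protein, 60 nM DHK-PGD2 agonist and test compounds at increasing concentrations. Buffer: 20 mM HEPES pH 7.4, 10 mM MgCl2, 300 mM NaCl, 0.2% BSA, 1% DMSO.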

IC50 [nM]	SMILES
15	N#Cc1cc(F)cc(-c2cc(CNS(=O)(=O)c3ccc(F)c(F)c3)ccc2OCC(=O)O)c1 [Example 194, 2-(3-cyano-5-fluorophenyl)-4-((3,4-difluorophenylsulfonamido)methyl)phenoxyacetic acid]
13	CN(Cc1ccc(OCC(=O)O)c(-c2cc(F)cc(F)c2)c1)S(=O)(=O)c1ccc(F)c(Cl)c1 [Example 67, 2-(3,5-difluorophenyl)-4-((3-chloro4-fluoro-N-methylphenylsulfonamido)methyl)phenoxyacetic acid]
0.2	CN(Cc1ccc(OCC(=O)O)c(-c2cc(F)cc(C#N)c2)c1)S(=O)(=O)c1cc(Cl)c(Cl)s1 [Example 192, 2-(3-cyano-5-fluorophenyl)-4-((2,3-dichloro-N-methylthiophene-5-sulfonamido)methyl)phenoxyacetic acid]
2.9	COc1cc(F)cc(-c2cc(CN(C)S(=O)(=O)c3ccc(OC)c(F)c3)ccc2OCC(=O)O)c1 [Example 48, 2-(3-fluoro-5-methoxyphenyl)-4-((3-fluoro-4-methoxy-N-methylphenylsulfonamido)methyl)phenoxyacetic acid]
169	O=C(O)COc1ccc(CNS(=O)(=O)c2ccc(F)cc2)cc1-c1cccc(C(F)(F)F)c1 [Example 110]

same assay, conditions: potency class symbols; Table 2; read-out: CRTH2 hGTPγS IC50

SMILES	IC50 [nM]
N#Cc1cc(F)cc(-c2cc(CNS(=O)(=O)c3ccc(F)c(F)c3)ccc2OCC(=O)O)c1 [Example 194, 2-(3-cyano-5-fluorophenyl)-4-((3,4-difluorophenylsulfonamido)methyl)phenoxyacetic acid]	< 100
CN(Cc1cc(-c2cc(F)cc(C#N)c2)c(OCC(=O)O)cc1F)S(=O)(=O)c1cccc(Cl)c1 [Example 210, 2-(3-cyano-5-fluoro-phenyl)-4-((3-chloro-N-methylphenylsulfonamido)methyl)-5-fluorophenoxyacetic acid]	< 100
CC(C)N(Cc1ccc(OCC(=O)O)c(-c2cccc(C(F)(F)F)c2)c1)S(=O)(=O)c1ccc(F)cc1 [Example 158, 2-(3-trifluoromethylphenyl)-4-((4-fluoro-N-isopropylphenylsulfonamido)methyl)phenoxyacetic acid]	1000 to 10000
CN(Cc1ccc(OCC(=O)O)c(-c2cncc(C(F)(F)F)c2)c1)S(=O)(=O)c1ccc(F)cc1 [Example 119, 2-(3-trifluoromethyl-5-pyridinyl)-4-((4-fluoro-N-methylphenylsulfonamido)methyl)phenoxyacetic acid]	100 to 1000
CN(Cc1ccc(OCC(=O)O)c(-c2cc(F)cc(C#N)c2)c1)S(=O)(=O)c1cc(Cl)c(Cl)s1 [Example 192, 2-(3-cyano-5-fluorophenyl)-4-((2,3-dichloro-N-methylthiophene-5-sulfonamido)methyl)phenoxyacetic acid]	< 100
COc1cc(F)cc(-c2cc(CN(C)S(=O)(=O)c3ccc(OC)c(F)c3)ccc2OCC(=O)O)c1 [Example 48, 2-(3-fluoro-5-methoxyphenyl)-4-((3-fluoro-4-methoxy-N-methylphenylsulfonamido)methyl)phenoxyacetic acid]	< 100
CCN(Cc1ccc(OCC(=O)O)c(-c2cccc(C(F)(F)F)c2)c1)S(=O)(=O)c1ccc(F)cc1 [Example 140, 2-(3-trifluoromethylphenyl)-4-((4-fluoro-N-ethylphenylsulfonamido)methyl)phenoxyacetic acid]	100 to 1000
C[C@H](Oc1ccc(CN(C)S(=O)(=O)c2ccc(F)cc2)cc1-c1cccc(C(F)(F)F)c1)C(=O)O [Example 36, (S)-2-(2-(3-trifluoromethylphenyl)-4-((4-fluoro-N-methylphenylsulfonamido)methyl)phenoxy)propanoic acid]	100 to 1000
CN(Cc1ccc(OCC(=O)O)c(-c2cccc(OC(F)(F)F)c2)c1)S(=O)(=O)c1ccc(F)cc1 [Example 125, 2-(3-trifluoromethoxyphenyl)-4-((4-fluoro-N-methylphenylsulfonamido)methyl)phenoxyacetic acid]	100 to 1000
CN(Cc1ccc(OCC(=O)O)c(-c2ccc3ccncc3c2)c1)S(=O)(=O)c1ccc(F)cc1 [Example 212, 2-(isoquinolin-7-yl)-4-((4-fluoro-N-methylphenylsulfonamido)methyl)phenoxyacetic acid]	100 to 1000
O=C(O)COc1ccc(CNS(=O)(=O)c2ccc(F)cc2)cc1-c1cccc(C(F)(F)F)c1 [Example 110]	100 to 1000
CN(Cc1cc(F)c(OCC(=O)O)c(-c2cccc(C#N)c2)c1)S(=O)(=O)c1ccc(F)cc1 [Example 136, 2-(3-cyanophenyl)-4-((4-fluoro-N-methylphenylsulfonamido)methyl)-6-fluorophenoxyacetic acid]	100 to 1000

Second part, the compound after the results:

IC50 [nM]	SMILES
< 100	CN(Cc1ccc(OCC(=O)O)c(-c2cccc(S(C)(=O)=O)c2)c1)S(=O)(=O)c1ccccc1F [Example 94, 2-(3-methylsulfonylphenyl)-4-((2-fluoro-N-methylphenylsulfonamido)methyl)phenoxyacetic acid]
< 100	CN(Cc1ccc(OCC(=O)O)c(-c2cc(F)cc(F)c2)c1)S(=O)(=O)c1ccc(F)c(Cl)c1 [Example 67, 2-(3,5-difluorophenyl)-4-((3-chloro4-fluoro-N-methylphenylsulfonamido)methyl)phenoxyacetic acid]
< 100	CN(Cc1ccc(OCC(=O)O)c(-c2ccc(F)c(S(C)(=O)=O)c2)c1)S(=O)(=O)c1ccc(F)cc1 [Example 28, 2-((4-fluoro-3-(methylsulfonyl)phenyl)-4-((4-fluoro-N-methylphenylsulfonamido)methyl)phenoxy)acetic acid]
< 100	CN(Cc1ccc(OCC(=O)O)c(-c2cccc(S(N)(=O)=O)c2)c1)S(=O)(=O)c1ccc(F)cc1 [Example 52, 2-(3-aminosulfonylphenyl)-4-((4-fluoro-N-methylphenylsulfonamido)methyl)phenoxyacetic acid]
< 100	CN(Cc1ccc(OCC(=O)O)c(-c2cc(F)cc(F)c2)c1)S(=O)(=O)c1ccc(F)c(F)c1 [Example 90, 2-(3,5-difluorophenyl)-4-((3,4-difluoro-N-methylphenylsulfonamido)methyl)phenoxyacetic acid]
1000 to 10000	CN(Cc1ccc(OCC(=O)O)c(-c2ccc(F)c(Cl)c2)c1)S(=O)(=O)c1ccc(F)cc1 [Example 157, 2-(3-chloro-4-fluorophenyl)-4-((4-fluoro-N-methylphenylsulfonamido)methyl)phenoxyacetic acid]
1000 to 10000	CN(Cc1ccc(OCC(=O)O)c(-c2ccccc2)c1)S(=O)(=O)c1ccc(F)cc1 [Example 178, 2-phenyl-4-((4-fluoro-N-methylphenylsulfonamido)methyl)phenoxyacetic acid]
100 to 1000	CN(Cc1ccc(OCC(=O)O)c(-c2cccc(C(F)(F)F)c2)c1)S(=O)(=O)c1cccc(Cl)c1 [Example 111, 2-(3-trifluoromethylphenyl)-4-((3-chloro-N-methylphenylsulfonamido)methyl)phenoxyacetic acid]
100 to 1000	CN(Cc1ccc(OCC(=O)O)c(-c2cccc(C(F)(F)F)c2)c1)S(=O)(=O)c1ccc(S(C)(=O)=O)cc1 [Example 134, 2-(3-trifluoromethylphenyl)-4-((4-methylsulfonyl-N-methylphenylsulfonamido)methyl)phenoxyacetic acid]
< 100	CN(Cc1ccc(OCC(=O)O)c(-c2cccc(C#N)c2)c1)S(=O)(=O)c1cc(F)cc(Cl)c1 [Example 99, 2-(3-cyanophenyl)-4-((3-chloro-5-fluoro-N-methylphenylsulfonamido)methyl)phenoxyacetic acid]
100 to 1000	COc1ccc(S(=O)(=O)N(C)Cc2ccc(OCC(=O)O)c(-c3cccc(C(F)(F)F)c3)c2)cc1 [Example 121, 2-(3-trifluoromethylphenyl)-4-((4-methoxy-N-methylphenylsulfonamido)methyl)phenoxyacetic acid]
< 100	CN(Cc1ccc(OCC(=O)O)c(-c2cccc(C#N)c2)c1)S(=O)(=O)c1ccc(F)c(F)c1 [Example 63, 2-(3-cyanophenyl)-4-((3,4-difluoro-N-methylphenylsulfonamido)methyl)phenoxyacetic acid]
< 100	CN(Cc1ccc(OCC(=O)O)c(-c2cc(F)cc(C#N)c2)c1)S(=O)(=O)c1ccc(F)c(Cl)c1 [Example 55, 2-(3-cyano-5-fluorophenyl)-4-((3-chloro-4-fluoro-N-methylphenylsulfonamido)methyl)phenoxyacetic acid]
< 100	CNS(=O)(=O)c1cccc(-c2cc(CN(C)S(=O)(=O)c3ccc(F)c(Cl)c3)ccc2OCC(=O)O)c1 [Example 16, 2-(2-(3-N-methylsulfamoylphenyl)-4-((3-chloro-4-fluoro-N-methylphenylsulfonamido)methyl)phenoxy)acetic acid]
